Reference: patent publication US11478464B1, “Method for treating inflammation” (KING FAISAL UNIVERSITY, priority 2022, dated 2022)
Values joined by “and” are separate entries in the source; they are usually repeats but may differ in a detail not shown here. Identical values can stand only once. “Also recorded” adds a separate entry of the source. Like-named read-outs stand apart in the source and are kept apart here.

Columns and labels:
[1] = system: carrageenan-induced rat paw edema; test: Carrageenan-induced paw edema in rats; type: in vivo; settings: 10 mg/kg oral; for Paw size: individual rats; for Paw size, Average: average over all measurements 0-5 hours
Protocol: Carrageenan was injected subcutaneously into a rodent's paw to generate inflammation due to plasma extravasation, tissue proliferation, plasma protein release, and neutrophilic extravasation, all of which are caused by arachidonic acid digestion. The major phase of inflammation occurs after the carrageenan infusion, and lasts about two hours. This primary stage is associated with the emergence of histamine and serotonin. The next stage frequently is remodeling and edema, which lasts about five hours and begins at about the third hour after administration of carrageenan. The appearance of prostaglandins, proteases, and lysosomes is associated with this second stage of inflammation.
Adult male albino rats weighing 120 g-150 g were divided into five groups of seven rats, allowed free access to food and water at 25° C. and 12 h light/dark cycle. Inflammation was generated in the rats by subplantar injection of 0.2 ml of 1% carrageenan solution in 0.9 percent saline (Sigma-Aldrich, St. Louis, Mo., USA), and injected into the right hind paw. A vernier caliper (SMIEC, Shanghai, China) was used to measure the thickness of the rat paws before and after carrageenan injection to provide a measure of the inflammation caused by carrageenan.
Paw edema was measured at 0 minutes, 30 minutes, and 1, 2, 3, 4, and 5 hours following administration of the medication. Inhibition of edema was indicated by the reduction of increased thickness when comparing the treated and control groups.

HEK293 cells = settings: 40 μM; for Proliferation of HEK293 (difference in absorbance between 450 and 620 nm), individual wells: WST-1
Protocol: HEK293 cells were treated with the compound solution at 40 μM or the vehicle dimethyl sulfoxide (DMSO) for 24 hours, with the addition of 5% fetal ox-like serum for recognition of cell feasibility reliant on mitochondrial movement.
Three wells were tested for each treatment. WST-1 reagent was added to each well, and the cells were incubated at 37° C.

rat stomach [2] = test: Ulcerogenic effect on rat stomach (histopathology); type: in vivo; settings: for Rat stomach collagen deposition, Masson's Trichrome stain, 10× / Rat stomach collagen deposition, Masson's Trichrome stain / Rat stomach collagen deposition, Masson's Trichrome stain, 40×: 20 mg/kg oral single dose, 24 hours; for Rat stomach collagen deposition, Masson's Trichrome stain: 10× and 40×; for Effect on gastric mucosa, in words: rat stomach
Protocol: Rats were starved for 24 hours at a normal room temperature of 25° C. with a 12-hour light/dark cycle. The reference drug for comparison was indomethacin. All compounds were administered orally at a single dose of 20 mg/kg. The rats were sacrificed after 24 hours, and their stomachs were retrieved and cleansed with normal saline. Each group's stomachs were examined using binocular magnification to detect the presence of a gastric lesion on the mucosa. The stomachs were then preserved in 10% w/v formalin for histological analysis. Exemplary photomicrographs are included in FIGS. 5A to 5H, and FIGS. 6A to 6H, as discussed further below.
This was accomplished by histopathologic examination of rat stomachs stained by Masson's Trichrome stain. See the photomicrographs of exemplary sections depicted in FIGS. 6A to 6H. Again, after application of Masson's Trichrome, the collagen fibrils are stained blue-green. The double-headed arrow represents collagen fibrils thickness in the submucosa.

rat paw = test: Histopathologic examination of carrageenan-treated rat paw (H&E, Masson's trichrome); type: in vivo; settings: for Rat paw collagen deposition, Masson's Trichrome stain / Rat paw histopathology, H&E, 10× magnification: 10×; for Rat paw histopathology, H&E: inflammatory reaction and edema: H&E stain
Protocol: The rat paws were removed and promptly cleaned in saline solution. The specimens were then fixed in 10% natural formalin for two days, and then rinsed with running water overnight. The cleaned samples were then dehydrated in increasing concentrations of ethyl alcohol, beginning with 70% and ending with absolute alcohol.
The samples were cleared by soaking them in xylol for 2 hours. The cleared samples were placed in a covered jar containing 50% paraffin in xylol for 3 hours at 37° C. The samples were then immersed in melting paraffin and maintained at 48° C. for 2 hours before being blocked in hard paraffin and cut into 5-micron sections. Hematoxylin and eosin (H&E) and Masson's trichrome were used to stain the sections. To prepare for histopathological investigation, sections of control rat paws, as well as rat paws treated with carrageenan alone or along with Compound 1, Compound 2, or indomethacin, were mounted with Canada balsam and coated with a coverslip.
The density of the blue-green collagen is consistent with the relative amount of deposited total collagen fiber, which represents collagen synthesis, degradation, and remodeling—some of which is associated with inflammation.

rat stomach [3] = test: Ulcerogenic effect on rat stomach (histopathology); type: in vivo; settings: 20 mg/kg oral single dose, 24 hours; for Rat stomach gastric layers, H&E: 10×; for Rat stomach inflammatory reaction, H&E: 40×

SMILES	Effect on rat paw edema, in words [1]	Rat stomach collagen deposition, Masson's Trichrome stain, 10× (rat stomach [2])	Rat stomach collagen deposition, Masson's Trichrome stain (rat stomach [2])	Rat stomach collagen deposition, Masson's Trichrome stain, 40× (rat stomach [2])	Effect on gastric mucosa, in words (rat stomach [2])	Rat paw collagen deposition, Masson's Trichrome stain (rat paw)	Rat paw histopathology, H&E, 10× magnification (rat paw)	Rat paw histopathology, H&E, 40× magnification (rat paw)	Rat paw histopathology, H&E: inflammatory reaction and edema (rat paw)	Paw size ([1]; 30 min)	Paw size ([1]; 1 hour)	Paw size ([1]; 2 hours)	Paw size ([1]; 3 hours)	Paw size ([1]; 4 hours)	Paw size ([1]; 5 hours)	Paw size, Average [1] [cm]	Paw size ([1]; zero time)	Rat stomach gastric layers, H&E (rat stomach [3])	Rat stomach inflammatory reaction, H&E (rat stomach [3])	Proliferation of HEK293 (difference in absorbance between 450 and 620 nm), individual wells (HEK293 cells; 24 hours)	other results
Cc1ccc(-c2cc(C(F)(F)F)nn2-c2ccc(S(N)(=O)=O)cc2)cc1 [Celecoxib, reference compound]	dramatically reduced	–	–	–	–	–	–	–	–	–	–	–	–	–	–	–	–	–	–	–	Cytotoxicity: morphological changes or damages in HEK293 cells (HEK293 cells; human, 24 h): caused changes and damages in HEK293 cells
Cc1cccc2[nH]c(C3CCCN(C(=O)c4ccccc4NCC(=O)O)C3)nc12 (stereo not shown) [Compound 1, [(2-{[3-(4-methyl-1H-benzimidazol-2-yl)piperidin-1-yl]carbonyl}phenyl)amino] acetic acid]	demonstrated to treat paw swelling; also recorded: significant decreases in rat paw size; also recorded: dramatically reduced	normal collagen deposition	normal collagen deposition	normal collagen deposition	no effect on gastric mucosa integrity or mucosa collagen content; also recorded: devoid of side effects on gastric mucosa	slight collagen deposition	significant decrease in dermal thickness, inflammatory reaction in the deep dermis (black star), and moderate improvement in edema	slight inflammatory reaction (black star) and slight edema	reduce inflammatory cell infiltration and alleviate edema with lesser collagen deposition; also recorded: marked improvement in the degree of edema and the inflammatory cell infiltration	0.7 cm (3×) and 0.65 cm (4×)	0.55 cm and 0.5 cm (4×) and 0.45 cm (2×)	0.5 cm (2×) and 0.45 cm (3×) and 0.4 cm (2×)	0.4 cm (3×) and 0.35 cm and 0.45 cm (3×)	0.45 cm (2×) and 0.4 cm (4×) and 0.5 cm	0.55 cm and 0.6 cm (4×) and 0.65 cm (2×)	0.542	0.75 cm (4×) and 0.7 cm (3×)	normal gastric layers	no sign of inflammatory reaction	1.0653 and 1.0573 and 1.0547	Rat stomach inflammatory reaction, H&E (rat stomach [3]; listed as compound 1): absence of any inflammatory reaction; Proliferation of HEK293 (difference in absorbance between 450 and 620 nm), Average (HEK293 cells; 24 hours, WST-1, three wells): 1.06
CCOC(=O)c1cn(-c2cc(C#N)ccc2O)cc(Oc2ccccc2)c1=O [Compound 2, ethyl-1-(5-cyano-2-hydroxyphenyl)-4-oxo-5-phenoxy-1,4-dihydropyridine-3-carboxylate]	demonstrated to treat paw swelling; also recorded: significant decreases in rat paw size; also recorded: dramatically reduced	slight collagen deposition	slight collagen deposition	slight collagen deposition	no effect on gastric mucosa integrity or mucosa collagen content; also recorded: devoid of side effects on gastric mucosa	slight collagen deposition; also recorded: lowest	substantial decrease in both inflammatory reaction (black star) and edema	slight inflammatory reaction (black star) and slight edema	reduce inflammatory cell infiltration and alleviate edema with lesser collagen deposition; also recorded: substantial decrease in both inflammatory reaction (black star) and a pronounced decline in edema	0.7 cm (3×) and 0.65 cm (2×) and 0.55 cm (2×)	0.55 cm and 0.5 cm (3×) and 0.45 cm (3×)	0.45 cm (2×) and 0.4 cm (5×)	0.35 cm and 0.4 cm (5×) and 0.45 cm	0.4 cm (5×) and 0.45 cm (2×)	0.55 cm and 0.6 cm (5×) and 0.5 cm	0.524	0.75 cm (5×) and 0.7 cm (2×)	normal gastric layers	absence of any inflammatory reaction; also recorded: no sign of inflammatory reaction	1.0667 and 1.0476 and 1.0648	Proliferation of HEK293 (difference in absorbance between 450 and 620 nm), Average (HEK293 cells; 24 hours, WST-1, three wells): 1.06
O=C(O)Cc1ccccc1Nc1c(Cl)cccc1Cl [Diclofenac, reference compound]	significantly reduced rat paw edema	–	–	–	–	–	–	–	–	0.7 cm and 0.65 cm (4×) and 0.6 cm (2×)	0.55 cm and 0.5 cm (3×) and 0.4 cm (2×) and 0.45 cm	0.45 cm (4×) and 0.4 cm (3×)	0.4 cm (4×) and 0.35 cm (2×) and 0.45 cm	0.35 cm (2×) and 0.4 cm (3×) and 0.45 cm (2×)	0.55 cm (3×) and 0.6 cm (4×)	0.518	0.7 cm (5×) and 0.75 cm (2×)	–	–	–	Proliferation of HEK293 (difference in absorbance between 450 and 620 nm), Average (HEK293 cells; human, 24 h): 1
COc1ccc2c(c1)c(CC(=O)O)c(C)n2C(=O)c1ccc(Cl)cc1 [Indomethacin, reference compound]	significantly reduced rat paw edema; also recorded: dramatically reduced	significant collagen deposition	significant collagen deposition	collagen deposition	–	slight collagen deposition	significant decrease in inflammatory reaction (black star) and a moderate decrease in edema	slight inflammatory reaction (black star) and slight edema	significant decrease in the degree of inflammatory reaction (black star), and a moderate decrease in edema	0.7 cm and 0.6 cm (4×) and 0.65 cm (2×)	0.5 cm (2×) and 0.4 cm (4×) and 0.45 cm	0.45 cm and 0.4 cm (3×) and 0.35 cm (3×)	0.4 cm (5×) and 0.35 cm (2×)	0.35 cm (4×) and 0.4 cm (3×)	0.5 cm and 0.55 cm (4×) and 0.45 cm (2×)	0.494	0.7 cm (2×) and 0.75 cm (5×)	slight degeneration of gastric layers	absence of any inflammatory reaction; also recorded: no sign of inflammatory reaction	–	–
